Measurements taken from patent US10501479B2, “Benzenesulfonyl-asymmetric ureas and medical uses thereof” (HELSINN HEALTHCARE SA, priority 2016, dated 2019).
pEC50, pIC50: −log10 of the molar value. Read-outs that look alike come from different tables or passages of the source.

Columns and labels:
[1] = biological target: T1, recombinant human ghrelin receptor (HEK293/GRLN) (Homo sapiens, UniProt Q92847); experiment: Ghrelin inverse agonist potency (EC50) with IP-1 (IP-One HTRF) assay; format: cell-based; conditions: IP-1 assay
T1 construct: expressed in transfected cells
Outline: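 HEK293/GRLN cells were seeded 18-22 hours before the test, then exposed to compound in stimulation buffer for 1 hour at 37° C, 5% CO2. IP-1 was detected by IP-One HTRF (IP1-d2 plus Tb-cryptate, 1 hour RT), reading 620 and 665 nm; the inverse agonist EC50 was derived from this.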

[2] = biological target: T2, GHSR-1a (HEK293/GHSR1a cell line) (Homo sapiens, UniProt Q92847); experiment: Ghrelin agonist potency (EC50) with calcium FLIPR assay; format: cell-based
T2 construct: expressed in transfected cells; host or cells: HEK293/GHSR1a cell line
Outline: (§1)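 HEK293/GHSR1a cells, seeded 24 hr ahead and loaded with calcium dye 30-60 min, were read by FLIPR fluorescence for 2 min after addition at t=20 sec. Agonism: compound alone, EC50 from dose-response. Antagonism: compound plus 10 nM ghrelin, IC50 from reduction of ghrelin response.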

[3] = biological target: T2, GHSR-1a (HEK293/GHSR1a cell line); experiment: Ghrelin antagonist potency (IC50) with calcium FLIPR assay, ghrelin 10 nM; format: cell-based
Outline: as §1

[4] = Metabolic stability in human liver microsomes; format: in vitro ADME
Outline: (§2)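 Compound incubated with human, dog, rat or mouse liver microsomes in 100 mM potassium phosphate, pH 7.4, at 37 °C. Reaction started with an NADPH regenerating system. Samples quenched at 0, 10, 30 and 90 min, and remaining compound measured by LC-MS/MS.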

[5] = Metabolic stability in mouse liver microsomes; format: in vitro ADME
Outline: as §2

[6] = HEK293/GRLN, read-out: Activity EC50 (ghrelin inverse agonist potency)
[7] = HEK293/GHSR1a, read-out: Activity EC50/EMax: EC50 (ghrelin agonist potency)
[8] = HEK293/GHSR1a, ghrelin 10 nM, read-out: Activity IC50 (ghrelin antagonist potency)
[9] = ghrelin inverse agonist potency, read-out: Activity EC50
[10] = ghrelin agonist potency, read-out: Activity EC50/EMax
[11] = ghrelin antagonist potency, read-out: Activity IC50

T1 sequence (Q92847 whole entry): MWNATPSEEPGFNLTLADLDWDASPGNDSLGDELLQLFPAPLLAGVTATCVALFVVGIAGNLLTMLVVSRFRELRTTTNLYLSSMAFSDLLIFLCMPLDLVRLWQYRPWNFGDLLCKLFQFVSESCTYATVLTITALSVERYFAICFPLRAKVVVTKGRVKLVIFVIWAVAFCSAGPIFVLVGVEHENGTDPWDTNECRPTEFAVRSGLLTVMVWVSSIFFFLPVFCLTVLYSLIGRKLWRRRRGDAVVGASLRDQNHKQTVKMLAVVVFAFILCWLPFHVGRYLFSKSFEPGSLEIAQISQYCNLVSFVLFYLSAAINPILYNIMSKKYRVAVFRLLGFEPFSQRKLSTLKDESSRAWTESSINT
T2 sequence (Q92847 whole entry): as above

Structure (SMILES) | pEC50 [1, 6] | pEC50 [2, 7] | pIC50 [3, 8] | Metabolic Stability Study H = human [4] [µL/min/mg] | Metabolic Stability Study M = mouse [5] [µL/min/mg] | pEC50 [1, 9] | pEC50 [2, 10] | pIC50 [3, 11]
COc1cc(S(=O)(=O)Cc2ccc3c(c2)CN(C)C3)ccc1NC(=O)NC(C)c1cccc(Cl)c1Cl (stereo not drawn) [H1427, 1-(1-(2,3-dichlorophenyl)ethyl)-3-(2-methoxy-4-(((2-methylisoindolin-5-yl)methyl)sulfonyl)phenyl)urea] | 9.15 | < 4.52 | 8.42 | 58.8 | 82.1 | – | – | –
COc1cc(S(=O)(=O)Cc2ccc3c(c2)CCN(C)C3)ccc1NC(=O)NC(C)c1cccc(Cl)c1Cl (stereo not drawn) [H1428, 1-(1-(2,3-dichlorophenyl)ethyl)-3-(2-methoxy-4-(((2-methyl-1,2,3,4-tetrahydroisoquinolin-6-yl)methyl)sulfonyl)phenyl)urea] | 9.30 | < 4.52 | 8.48 | 69.3 | 194.8 | – | – | –
CC(NC(=O)Nc1ccc(S(=O)(=O)Cc2ccc3c(c2)CN(C)C3)cc1)c1c(F)cccc1F (stereo not drawn) [H1429, 1-(1-(2,6-difluorophenyl)ethyl)-3-(4-(((2-methylisoindolin-5-yl)methyl)sulfonyl)phenyl)urea] | 8.14 | < 4.52 | 6.80 | 65.2 | 63.6 | – | – | –
COc1cc(S(=O)(=O)Cc2ccc3c(c2)CC(C)N(C)C3)ccc1NC(=O)NC(C)c1cccc(Cl)c1Cl (stereo not drawn) [H1431, 1-(1-(2,3-dichlorophenyl)ethyl)-3-(4-(((2,3-dimethyl-1,2,3,4-tetrahydroisoquinolin-6-yl)methyl)sulfonyl)-2-methoxyphenyl)urea] | 9.18 | < 4.52 | 8.34 | 99.7 | 135.7 | – | – | –
CC(NC(=O)Nc1ccc(S(=O)(=O)Cc2ccc3c(c2)CNC3)cc1)c1cc(F)cc(F)c1 (stereo not drawn) [H1445, 1-(1-(3,5-difluorophenyl)ethyl)-3-(4-((isoindolin-5-ylmethyl)sulfonyl)phenyl)urea] | 8.41 | < 4.52 | 7.62 | 19.4 | 17.3 | – | – | –
CC(NC(=O)Nc1ccc(S(=O)(=O)Cc2ccc3c(c2)CN(C)C3)cc1)c1cc(F)cc(F)c1 (stereo not drawn) [H1446, 1-(1-(3,5-difluorophenyl)ethyl)-3-(4-(((2-methylisoindolin-5-yl)methyl)sulfonyl)phenyl)urea] | 8.05 | < 4.52 | 7.02 | 177.6 | 58.5 | – | – | –
Cc1cc(S(=O)(=O)Cc2ccc3c(c2)CN(C)C3)ccc1NC(=O)NC(C)c1ccccc1 (stereo not drawn) [H1447, 1-(2-methyl-4-(((2-methylisoindolin-5-yl)methyl)sulfonyl)phenyl)-3-(1-phenylethyl)urea] | 8.19 | < 4.52 | 7.00 | 72.5 | 42.6 | – | – | –
COc1cccc(F)c1C(C)NC(=O)Nc1ccc(S(=O)(=O)Cc2ccc3c(c2)CN(C)C3)cc1 (stereo not drawn) [H1454, 1-(1-(2-fluoro-6-methoxyphenyl)ethyl)-3-(4-(((2-methylisoindolin-5-yl)methyl)sulfonyl)phenyl)urea] | 8.21 | < 4.52 | 7.50 | 259.9 | 193.3 | – | – | –
COc1cccc(F)c1C(C)NC(=O)Nc1ccc(S(=O)(=O)Cc2ccc3c(c2)CNC3)cc1 (stereo not drawn) [H1455, 1-(1-(2-fluoro-6-methoxyphenyl)ethyl)-3-(4-((isoindolin-5-ylmethyl)sulfonyl)phenyl)urea] | 8.28 | < 4.52 | 7.37 | 55.5 | 56.9 | – | – | –
CC(NC(=O)Nc1ccc(S(=O)(=O)Cc2ccc3c(c2)CN(C)C3)cc1Cl)c1ccccc1 (stereo not drawn) [H1456, 1-(2-chloro-4-(((2-methylisoindolin-5-yl)methyl)sulfonyl)phenyl)-3-(1-phenylethyl)urea] | – | – | – | 160.6 | 137.8 | 8.21 | < 4.52 | 6.96
COC(=O)c1cc(S(=O)(=O)Cc2ccc3c(c2)CNC3)ccc1NC(=O)NC(C)c1ccccc1 (stereo not drawn) [H1459, methyl 5-((isoindolin-5-ylmethyl)sulfonyl)-2-(3-(1-phenylethyl)ureido)benzoate] | – | – | – | 53.7 | 49.3 | 8.08 | < 4.52 | 7.94
COc1cc(NC(=O)NC(C)c2ccccc2)ccc1S(=O)(=O)Cc1ccc2c(c1)CN(C)C2 (stereo not drawn) [H1462, 1-(3-methoxy-4-(((2-methylisoindolin-5-yl)methyl)sulfonyl)phenyl)-3-(1-phenylethyl)urea] | – | – | – | 76.1 | 15.8 | 8.20 | < 4.52 | 7.86
COc1cc(S(=O)(=O)Cc2ccc3c(c2)CCNC3)ccc1NC(=O)N[C@@H](C)c1cccc(Cl)c1Cl [H1482, (S)-1-(1-(2,3-dichlorophenyl)ethyl)-3-(2-methoxy-4-(((1,2,3,4-tetrahydroisoquinolin-6-yl)methyl)sulfonyl)phenyl)urea] | – | – | – | < 10 | 12.5 | 9.40 | < 4.52 | 9.55
CC(NC(=O)Nc1ccc(S(=O)(=O)Cc2ccc3c(c2)CNC3)cc1C1CC1)c1ccccc1 (stereo not drawn) [H1484, 1-(2-cyclopropyl-4-((isoindolin-5-ylmethyl)sulfonyl)phenyl)-3-(1-phenylethyl)urea] | – | – | – | 116.7 | 149.3 | 8.15 | < 4.52 | 7.66
CC(NC(=O)Nc1ccc(S(=O)(=O)Cc2ccc3c(c2)CN(C)C3)c(O)c1)c1ccccc1.O=C(O)C(F)(F)F (stereo not drawn) [H1487, 1-(3-hydroxy-4-(((2-methylisoindolin-5-yl)methyl)sulfonyl)phenyl)-3-(1-phenylethyl)urea] | – | – | – | 26.1 | 16.9 | 8.24 | < 4.52 | 7.73
COC(=O)c1cc(NC(=O)NC(C)c2ccccc2)ccc1S(=O)(=O)Cc1ccc2c(c1)CNC2 (stereo not drawn) [H1505, methyl 2-((isoindolin-5-ylmethyl)sulfonyl)-5-(3-(1-phenylethyl)ureido)benzoate] | – | – | – | 37.3 | 135.5 | 7.93 | < 4.52 | 8.08
CC(NC(=O)Nc1ccc(S(=O)(=O)Cc2ccc3c(c2)CNC3)c(C2CC2)c1)c1ccccc1 (stereo not drawn) [H1506, 1-(3-cyclopropyl-4-((isoindolin-5-ylmethyl)sulfonyl)phenyl)-3-(1-phenylethyl)urea] | – | – | – | 49.2 | 132.5 | 8.38 | < 4.52 | 8.64
CC(c1cccc(Cl)c1Cl)N(O)C(=O)Nc1ccc(S(=O)(=O)Cc2ccc3c(c2)CNC3)cc1.O=C(O)C(F)(F)F (stereo not drawn) [H1509, 1-(1-(2,3-dichlorophenyl)ethyl)-1-hydroxy-3-(4-((isoindolin-5-ylmethyl)sulfonyl)phenyl)urea] | – | – | – | 15.9 | 16.0 | 9.00 | < 4.52 | 9.47
COc1cc(NC(=O)N(O)C(C)c2ccccc2F)ccc1S(=O)(=O)Cc1ccc2c(c1)CNC2 (stereo not drawn) [H1510, 1-(1-(2-fluorophenyl)ethyl)-1-hydroxy-3-(4-((isoindolin-5-ylmethyl)sulfonyl)-3-methoxyphenyl)urea] | – | – | – | 23.8 | 18.4 | 8.46 | < 4.52 | 8.27
COc1cc(NC(=O)N(O)C(C)c2ccccc2F)ccc1S(=O)(=O)Cc1ccc2c(c1)CN(C)C2 (stereo not drawn) [H1511, 1-(1-(2-fluorophenyl)ethyl)-1-hydroxy-3-(3-methoxy-4-(((2-methylisoindolin-5-yl)methyl)sulfonyl)phenyl)urea] | – | – | – | 94.2 | 44.5 | 8.28 | < 4.52 | 8.22
COc1cc(NC(=O)N(O)C(C)c2ccccc2)ccc1S(=O)(=O)Cc1ccc2c(c1)CNC2 (stereo not drawn) [H1515, 1-hydroxy-3-(4-((isoindolin-5-ylmethyl)sulfonyl)-3-methoxyphenyl)-1-(1-phenylethyl)urea] | – | – | – | 15.2 | 18.4 | 8.02 | < 4.52 | 7.80
